According to ChEMBL document CHEMBL2331555 (ACS Med Chem Lett, 2013):
Converted amounts (≈) assume the structure as drawn.

What was measured:
in vitro = conditions: dog, MDCK
in vivo [1] = conditions: rat, po
in vivo [2] = conditions: rat

| solubility kinetic (physchem) [µM] | Papp (in vitro) [×10⁻⁶ cm/s] | bioavailability (in vivo [1]) [%] | Vd (in vivo [2]) [L/kg] | Structure (SMILES) |
| --- | --- | --- | --- | --- |
| 2 (≈ 0.901 µg/mL) | 0.305 | – | – | COc1ccc(-c2ccc3ncc4c(c3n2)n(-c2ccc(C(C)(C)C#N)cc2)c(=O)n4C)cn1 |
| 117 (≈ 52.6 µg/mL) | 14.3 | – | – | COc1ccc(-c2ccc3ncc4c(c3n2)n([C@H]2CC[C@H](OCCO)CC2)c(=O)n4C)cn1 |
| 22.2 (≈ 9 µg/mL) | 14.3 | – | – | COc1ccc(-c2ccc3ncc4c(c3n2)n([C@H]2CC[C@H](O)CC2)c(=O)n4C)cn1 |
| – | 6.65 | 76 | 4.46 | COc1ccc(-c2ccc3ncc4c(c3n2)n(C2CCN(C)CC2)c(=O)n4C)cn1 |
| 22 (≈ 9.51 µg/mL) | 16.3 | – | – | COc1ccc(-c2ccc3ncc4c(c3n2)n(C2CCN(C(C)=O)CC2)c(=O)n4C)cn1 |
| 455 (≈ 190 µg/mL) | 19.5 | – | – | CC(=O)N1CCC(n2c(=O)n(C)c3cnc4ccc(-c5ccc(C)nc5)nc4c32)CC1 |
| – | 18.2 | – | – | Cc1ccc(-c2ccc3ncc4c(c3n2)n(C2CCN(C(=O)CO)CC2)c(=O)n4C)cn1 |
| – | 21.9 | – | – | Cc1ccc(-c2ccc3ncc4c(c3n2)n(C2CCN(C(=O)C(C)(C)O)CC2)c(=O)n4C)cn1 |
| – | 20.2 | – | – | COCC(=O)N1CCC(n2c(=O)n(C)c3cnc4ccc(-c5ccc(C)nc5)nc4c32)CC1 |
| 55.5 (≈ 24.5 µg/mL) | 8.56 | – | – | CC(=O)N1CCC(n2c(=O)n(C)c3cnc4ccc(-c5cccc6[nH]ncc56)nc4c32)CC1 |
| – | 3.97 | – | – | CC(=O)N1CCC(n2c(=O)n(C)c3cnc4ccc(-c5cnc6[nH]ncc6c5)nc4c32)CC1 |
| 444 (≈ 209 µg/mL) | 4.6 | – | – | C[C@H](O)C(=O)N1CCC(n2c(=O)n(C)c3cnc4ccc(-c5cccc6[nH]ncc56)nc4c32)CC1 |
